According to patent US11629138B2, “Microbiocidal picolinamide derivatives” (Syngenta Participations AG, priority 2017, dated 2023):

What was measured:
[1] = system: Mycosphaerella graminicola (Septoria tritici); assay: Mycosphaerella graminicola (Septoria tritici) / liquid culture (Septoria blotch); format: cell-based; conditions: Zymoseptoria tritici; 200 ppm in the formulation; PDB broth, 24° C., photometric, 4 to 5 days after application; vs untreated control; read-out: disease control (inhibition of growth)
Protocol: Mycosphaerella graminicola (Septoria tritici)/Liquid Culture (Septoria Blotch) Conidia of the fungus from cryogenic storage are directly mixed into nutrient broth (PDB potato dextrose broth). After placing a (DMSO) solution of test compound into a microtiter plate (96-well format), the nutrient broth containing the fungal spores is added. The test plates are incubated at 24° C. and the inhibition of growth is determined photometrically 4 to 5 days after application.

[2] = system: Mycosphaerella arachidis (Cercospora arachidicola); assay: Mycosphaerella arachidis (Cercospora arachidicola) / liquid culture (early leaf spot); format: cell-based; conditions: 200 ppm in the formulation, PDB broth, 24° C., photometric, 4-5 days after application, vs untreated control, read-out: disease control (inhibition of growth)
Protocol: Mycosphaerella arachidis (Cercospora arachidicola)/Liquid Culture (Early Leaf Soot) Conidia of the fungus from cryogenic storage are directly mixed into nutrient broth (PDB potato dextrose broth). After placing a (DMSO) solution of test compound into a microtiter plate (96-well format), the nutrient broth containing the fungal spores is added. The test plates are incubated at 24° C. and the inhibition of growth is determined photometrically 4-5 days after application.

[3] = system: Puccinia recondita f. so. tritici; assay: Puccinia recondita f. sp. tritici / wheat / leaf disc preventative (brown rust); format: in vivo; conditions: foliar, 200 ppm in the formulation, wheat leaf segments cv. Kanzler, 7-9 days after application, vs untreated control, read-out: disease control
Protocol: Puccinia recondita f. so. tritici/Wheat/Leaf Disc Preventative (Brown Rust)
Wheat leaf segments cv. Kanzler are placed on agar in multiwell plates (24-well format) and sprayed with the formulated test compound diluted in water. The leaf disks are inoculated with a spore suspension of the fungus 1 day after application. The inoculated leaf segments are incubated at 19° C. and 75% rh under a light regime of 12 h light/12 h darkness in a climate cabinet and the activity of a compound is assessed as percent disease control compared to untreated when an appropriate level of disease damage appears in untreated check leaf segments (7-9 days after application).

[4] = system: Monographella nivalis (Microdochium nivale); assay: Monographella nivalis (Microdochium nivale) / liquid culture (foot rot cereals); format: cell-based; conditions: 200 ppm in the formulation, PDB broth, 24° C., photometric, 4-5 days after application, vs untreated control, read-out: disease control (inhibition of growth)
Protocol: Monographella nivalis (Microdochium nivale)/Liquid Culture (Foot Rot Cereals) Conidia of the fungus from cryogenic storage are directly mixed into nutrient broth (PDB potato dextrose broth). After placing a (DMSO) solution of test compound into a microtiter plate (96-well format), the nutrient broth containing the fungal spores is added. The test plates are incubated at 24° C. and the inhibition of growth is determined photometrically 4-5 days after application.

[5] = system: Botryotinia fuckeliana (Botrytis cinerea); assay: Botryotinia fuckeliana (Botrytis cinerea) liquid culture (gray mould); format: cell-based; conditions: 200 ppm in the formulation, Vogels broth, 24° C., photometric, 3-4 days after application, vs untreated control, read-out: disease control (inhibition of growth)
Protocol: Botryotinia fuckeliana (Botrytis cinerea) Liquid Culture (Gray Mould) Conidia of the fungus from cryogenic storage are directly mixed into nutrient broth (Vogels broth). After placing a (DMSO) solution of test compound into a microtiter plate (96-well format), the nutrient broth containing the fungal spores is added. The test plates are incubated at 24° C. and the inhibition of growth is determined photometrically 3-4 days after application.

[6] = system: Glomerella lagenarium (Colletotrichum lagenarium); assay: Glomerella lagenarium (Colletotrichum lagenarium) / liquid culture (anthracnose); format: cell-based; conditions: Colletotrichum orbiculare; 200 ppm in the formulation; PDB broth, 24° C., photometric, 3 to 4 days after application; vs untreated control; read-out: disease control (inhibition of growth)
Protocol: Glomerella lagenarium (Colletotrichum lagenarium)/Liquid Culture (Anthracnose) Conidia of the fungus from cryogenic storage are directly mixed into nutrient broth (PDB potato dextrose broth). After placing a (DMSO) solution of test compound into a microtiter plate (96-well format), the nutrient broth containing the fungal spores is added. The test plates are incubated at 24° C. and the inhibition of growth is measured photometrically 3 to 4 days after application.

[7] = system: Phaeosphaeria nodorum (Setoria nodorum); assay: Phaeosphaeria nodorum (Septoria nodorum) / wheat / leaf disc preventative (glume blotch); format: in vivo; conditions: Parastagonospora nodorum, foliar, 200 ppm in the formulation, wheat leaf segments cv. Kanzler, 5-7 days after application, vs untreated control, read-out: disease control
Protocol: Phaeosphaeria nodorum (Setoria nodorum)/Wheat/Leaf Disc Preventative (Glume Blotch) Wheat leaf segments cv. Kanzler are placed on agar in a multiwell plate (24-well format) and sprayed with the formulated test compound diluted in water. The leaf disks are inoculated with a spore suspension of the fungus 2 days after application. The inoculated test leaf disks are incubated at 20° C. and 75% rh under a light regime of 12 h light/12 h darkness in a climate cabinet and the activity of a compound is assessed as percent disease control compared to untreated when an appropriate level of disease damage appears in untreated check leaf disks (5-7 days after application).

COc1ccnc(C(=O)N[C@@H](C)C(=O)OC(C)C(C)n2ncc3ccccc32)c1O (stereo partly drawn) [I.ae.001, (2-indazol-1-yl-1-methyl-propyl) (2S)-2-[(3-hydroxy-4-methoxy-pyridine-2-carbonyl)amino]propanoate]
≥ 80%: inhibition at 200 ppm [1] | inhibition at 200 ppm [2] | pest or weed control at 200 ppm [3]

COc1ccnc(C(=O)N[C@@H](C)C(=O)OC(C)C(C)n2cc(C#N)c(-c3cccc(Cl)c3Cl)c2)c1O (stereo partly drawn) [I.ag.001, [2-[3-cyano-4-(2,3-dichlorophenyl)pyrrol-1-yl]-1-methyl-propyl] (2S)-2-[(3-hydroxy-4-methoxy-pyridine-2-carbonyl)amino] propanoate]
≥ 80%: inhibition at 200 ppm [4] | inhibition at 200 ppm [5] | inhibition at 200 ppm [6] | inhibition at 200 ppm [1]

COc1ccnc(C(=O)N[C@@H](C)C(=O)OC(C)C(C)n2cc(C#N)c(-c3ccccc3Cl)c2)c1O (stereo partly drawn) [I.ah.001, [2-[3-(2-chlorophenyl)-4-cyano-pyrrol-1-yl]-1-methyl-propyl] (2S)-2-[(3-hydroxy-4-methoxy-pyridine-2-carbonyl)amino]propanoate]
≥ 80%: inhibition at 200 ppm [4] | inhibition at 200 ppm [5] | inhibition at 200 ppm [6] | inhibition at 200 ppm [1] | inhibition at 200 ppm [2]

COc1ccnc(C(=O)N[C@@H](C)C(=O)OC(C)C(C)c2sc3ccc(Cl)cc3c2C)c1O (stereo partly drawn) [I.at.001, [2-(5-chloro-3-methyl-benzothiophen-2-yl)-1-methyl-propyl] (2S)-2-[(3-hydroxy-4-methoxy-pyridine-2-carbonyl)amino]propanoate]
≥ 80%: inhibition at 200 ppm [4] | inhibition at 200 ppm [6] | inhibition at 200 ppm [1] | inhibition at 200 ppm [2] | pest or weed control at 200 ppm [7] | pest or weed control at 200 ppm [3]

COc1ccnc(C(=O)N[C@@H](C)C(=O)OC(C)C(C)n2ccc3cc(Cl)c(Cl)cc32)c1O (stereo partly drawn) [I.au.001, [2-(5,6-dichloroindol-1-yl)-1-methyl-propyl] (2S)-2-[(3-hydroxy-4-methoxy-pyridine-2-carbonyl)amino] propanoate]
≥ 80%: inhibition at 200 ppm [4] | inhibition at 200 ppm [5] | inhibition at 200 ppm [6] | inhibition at 200 ppm [1] | inhibition at 200 ppm [2] | pest or weed control at 200 ppm [3]

COc1ccnc(C(=O)N[C@@H](C)C(=O)OC(C)C(C)n2ccc3cc(F)c(Cl)cc32)c1O (stereo partly drawn) [I.av.001, [2-(6-chloro-5-fluoro-indol-1-yl)-1-methyl-propyl] (2S)-2-[(3-hydroxy-4-methoxy-pyridine-2-carbonyl)amino]propanoate]
≥ 80%: inhibition at 200 ppm [6] | inhibition at 200 ppm [1] | inhibition at 200 ppm [2] | pest or weed control at 200 ppm [3]

COc1ccnc(C(=O)N[C@@H](C)C(=O)OC(C)C(C)n2ccc3cc(F)c(Br)cc32)c1O (stereo partly drawn) [I.aw.001, [2-(6-bromo-5-fluoro-indol-1-yl)-1-methyl-propyl] (2S)-2-[(3-hydroxy-4-methoxy-pyridine-2-carbonyl)amino]propanoate]
≥ 80%: inhibition at 200 ppm [6] | inhibition at 200 ppm [1] | inhibition at 200 ppm [2] | pest or weed control at 200 ppm [3]

COc1ccnc(C(=O)N[C@@H](C)C(=O)OC(C)C(C)n2ccc3cc(F)cc(F)c32)c1O (stereo partly drawn) [I.ay.001, [2-(5,7-difluoroindol-1-yl)-1-methyl-propyl] (2S)-2-[(3-hydroxy-4-methoxy-pyridine-2-carbonyl)amino] propanoate]
≥ 80%: inhibition at 200 ppm [4] | inhibition at 200 ppm [6] | inhibition at 200 ppm [1] | inhibition at 200 ppm [2] | pest or weed control at 200 ppm [7] | pest or weed control at 200 ppm [3]

COc1ccnc(C(=O)N[C@@H](C)C(=O)OC(C)C(C)n2ccc3c(Cl)ccc(Cl)c32)c1OC(C)=O (stereo partly drawn) [I.bb.041, [2-(4,7-dichloroindol-1-yl)-1-methyl-propyl] (2S)-2-[(3-acetoxy-4-methoxy-pyridine-2-carbonyl)amino] propanoate]
≥ 80%: inhibition at 200 ppm [4] | inhibition at 200 ppm [6] | inhibition at 200 ppm [1] | inhibition at 200 ppm [2] | pest or weed control at 200 ppm [7] | pest or weed control at 200 ppm [3]

COc1ccnc(C(=O)N[C@@H](C)C(=O)OC(C)C(C)c2ccc3ccccc3n2)c1O (stereo partly drawn) [I.s.001, [1-methyl-2-(2-quinolyl)propyl] (2S)-2-[(3-hydroxy-4-methoxy-pyridine-2-carbonyl)amino]propanoate]
≥ 80%: inhibition at 200 ppm [4] | inhibition at 200 ppm [5] | inhibition at 200 ppm [6] | inhibition at 200 ppm [1] | inhibition at 200 ppm [2] | pest or weed control at 200 ppm [3]

COc1ccnc(C(=O)N[C@@H](C)C(=O)OC(C)C(C)n2ccc3ccc(F)cc32)c1O (stereo partly drawn) [I.v.001, [2-(6-fluoroindol-1-yl)-1-methyl-propyl] (2S)-2-[(3-hydroxy-4-methoxy-pyridine-2-carbonyl)amino]propanoate]
≥ 80%: inhibition at 200 ppm [4] | inhibition at 200 ppm [5] | inhibition at 200 ppm [6] | inhibition at 200 ppm [1] | inhibition at 200 ppm [2] | pest or weed control at 200 ppm [3]

COc1ccnc(C(=O)N[C@@H](C)C(=O)OC(C)C(C)n2ccc3cc(F)ccc32)c1O (stereo partly drawn) [I.w.001, [2-(5-fluoroindol-1-yl)-1-methyl-propyl] (2S)-2-[(3-hydroxy-4-methoxy-pyridine-2-carbonyl)amino]propanoate]
≥ 80%: inhibition at 200 ppm [4] | inhibition at 200 ppm [5] | inhibition at 200 ppm [6] | inhibition at 200 ppm [1] | inhibition at 200 ppm [2] | pest or weed control at 200 ppm [3]

COc1ccnc(C(=O)N[C@@H](C)C(=O)OC(C)C(C)n2ccc3ccc(Cl)cc32)c1O (stereo partly drawn) [I.x.001, [2-(6-chloroindol-1-yl)-1-methyl-propyl] (2S)-2-[(3-hydroxy-4-methoxy-pyridine-2-carbonyl)amino]propanoate]
≥ 80%: inhibition at 200 ppm [5] | inhibition at 200 ppm [6] | inhibition at 200 ppm [1] | inhibition at 200 ppm [2] | pest or weed control at 200 ppm [3]
